# Results reported in patent publication US10039806B2, “Methods and compositions for treating antiprogestin-resistant cancers” (Fundación Sales, priority 2011, dated 2018).
# Tests used:
# [1] = test system: C4-HI or C4-HIR epithelial cells with carcinoma-associated fibroblasts; assay: (3H)-thymidine uptake, co-cultures with carcinoma-associated fibroblasts; format: cell-based, mouse; settings: own or other tumor's fibroblasts
# Description: Trypsinized cells were resuspended and equal amounts of epithelial cells and carcinoma-associated fibroblasts were seeded with 10% FCS that was replaced after attachment by 1% steroid-stripped FCS. […] The same amount of epithelial cells or carcinoma-associated fibroblasts or double the amount of purified cells was used for comparison.
# (§1) (3H)-thymidine-uptake was used as an indirect method to evaluate cell proliferation. In brief, cells were seeded into 96-well microplates. After attachment (24 h), the cells were incubated for 24 h with 1% steroid-stripped FCS and then for 48 h with the experimental solutions to be tested in 1% chFCS. Fifty percent of the medium was replaced with fresh medium every 24 h. The cells were incubated with 0.4 μCi of 3H-thymidine (specific activity: 20 Ci/mmol) for 24 h, trypsinized, and harvested in a cell harvester. In experiments in which 5azadC was used, the experiments were carried out using proliferating cells (presence of 10% FCS) to guarantee the effect of the demethylating agent. Three different experiments were made using octuplicates, and the means and standard deviations of one representative experiment of the other three are shown. The results are expressed as the proliferation index (cpm […] experimental group/cpm control; mean±SEM).
# C4-2-HI cells = assay: (3H)-thymidine uptake, primary cultures of purified epithelial cells; format: cell-based, mouse; settings: 48 h, 1% chFCS
# Description: (§2) Epithelial cells and carcinoma-associated fibroblasts were separated by differential sedimentation and plated with 10% FCS. Carcinoma-associated fibroblasts were allowed to attach for 0.5 h and the epithelial cells for 24-48 h. The medium was replaced by fresh medium with 10% FCS; thereafter, it was changed every 2-3 days.
# as §1
# C4-HIR cells = assay: as above; format: cell-based, mouse; settings: 48 h, 1% chFCS; P<0.001
# Description: as §2, §1
# C4-HI cells = assay: as above; format: cell-based, mouse; settings: 48 h, 1% chFCS; P<0.001
# Description: as §2, §1
# T47D cells = settings: 5% FCS; cited from earlier work
structure (smiles),measurement,setting,value
"CC(=O)O[C@]1(C(C)=O)CC[C@H]2[C@@H]3C[C@H](C)C4=CC(=O)CC[C@]4(C)[C@H]3CC[C@@]21C [MPA, medroxyprogesterone acetate]",co-culture cell proliferation,[1],stimulated
same,cell proliferation (proliferation index),C4-2-HI cells,no differences were observed
same,cell proliferation (proliferation index),C4-HIR cells,proliferative effect
same,cell proliferation (proliferation index),C4-HI cells,strong proliferative effect
same,effects on T47D cells,T47D cells,inhibitory effects
